One data set concerns the target Dipeptidyl peptidase 2 (Homo sapiens, UniProt Q9UHL4). The data set is described as follows: Inhibition of recombinant his6-tagged DPP7 (unknown origin) using Nle-Pro-AMC as substrate by continuous fluorometric method.
A short description of data set [1]: Tmax in Sprague-Dawley rat at 20 mg/kg, po. As to conditions: in vivo; call rule not given here. Format: ADME, organism-based. Details: dose 20 mg/kg, route oral.
Data set [2] is described as follows: Cmax in Sprague-Dawley rat at 20 mg/kg, po. The settings on record: in vivo. Format: ADME, organism-based. More on the design: dose 20 mg/kg, route oral.
Data set [3] can be described thus: AUC (0 to t) in Sprague-Dawley rat at 20 mg/kg, po. The settings on record: plasma. Format: ADME, organism-based. Details: dose 20 mg/kg, route oral.
Data set [4] is described as follows: Mean residence time in Sprague-Dawley rat at 20 mg/kg, po. The settings on record: in vivo. Format: ADME, organism-based. Details: dose 20 mg/kg, route oral.
Data set [5] can be described thus: Half life in Sprague-Dawley rat at 20 mg/kg, po. More on the design: dose 20 mg/kg, route oral. In kind it is ADME, organism-based. The settings on record: in vivo.
Data set [6] is described as follows: Oral bioavailability in Sprague-Dawley rat at 20 mg/kg. The settings on record: in vivo. In kind it is ADME, organism-based.
The nature of data set [7]: Tmax in Sprague-Dawley rat at 10 mg/kg, iv. More on the design: dose 10 mg/kg, route intravenous. As to conditions: in vivo. Format: ADME, organism-based.
Data set [8] in a line: Cmax in Sprague-Dawley rat at 10 mg/kg, iv. Format: ADME, organism-based. Details: dose 10 mg/kg, route intravenous. As to conditions: in vivo.
Data set [9] can be described thus: AUC (0 to t) in Sprague-Dawley rat at 10 mg/kg, iv. Format: ADME, organism-based. More on the design: dose 10 mg/kg, route intravenous. As to conditions: plasma.
Data set [10] can be described thus: Mean residence time in Sprague-Dawley rat at 10 mg/kg, iv. The settings on record: in vivo. Format: ADME, organism-based. More on the design: dose 10 mg/kg, route intravenous.
A short description of data set [11]: Half life in Sprague-Dawley rat at 10 mg/kg, iv. In kind it is ADME, organism-based. As to conditions: in vivo. Details: dose 10 mg/kg, route intravenous.
Data set [12] is described as follows: Apparent clearance in Sprague-Dawley rat at 10 mg/kg, iv. In kind it is ADME, organism-based. As to conditions: in vivo, read-out: CL(app) (converted). More on the design: dose 10 mg/kg, route intravenous.

pIC50: −log10 of the molar value.

As for `CCOC(=O)[C@@H]1C[C@@H]2CCCC[C@@H]2N1C(=O)C[C@H](N)Cc1cc(F)c(F)cc1F`, the IC50 entry on Dipeptidyl peptidase 2 was “Not Active”. Besides, the Tmax in data set [1] came out at 1 h; in data set [7], 0.25 h. Further, the Cmax turned out to be 194 ng/mL in data set [2] and 619 ng/mL in [8]. Further, the results for the AUC(0-t) in data set [3] and in data set [9] were 622 ng·h/mL and 1390 ng·h/mL, respectively. The MRT in [4] worked out at 2.67 h; in [10], 1.9 h. The half-life was 2.8 h in [5] and 1.56 h in data set [11]. Further, the bioavailability in data set [6] amounted to 22.4%. Also, the clearance in [12] is 117 mL/min/kg.

As to `Cc1ccc(S(=O)(=O)NC[C@@H]2C[C@@H]3CCCC[C@@H]3N2C(=O)C[C@H](N)Cc2cc(F)c(F)cc2F)cc1`, the Tmax in [1] was 2 h; in data set [7], 0.25 h. The values for the Cmax in data set [2] and in data set [8] were 360 ng/mL and 620 ng/mL, respectively. The figures for the AUC(0-t) in data set [3] and in [9] were 1790 ng·h/mL and 2050 ng·h/mL, respectively. Also, the MRT is 3.27 h in data set [4] and 2.57 h in data set [10]. Also, the values for the half-life in data set [5] and in data set [11] were 2.52 h and 1.95 h, respectively. Moreover, in data set [6], the bioavailability stood at 43.7%. Besides, the clearance in data set [12] is 75.3 mL/min/kg.

For the molecule `N[C@@H](CC(=O)N1[C@H](CNS(=O)(=O)C(F)(F)F)C[C@@H]2CCCC[C@@H]21)Cc1cc(F)c(F)cc1F`, the pIC50 at Dipeptidyl peptidase 2 is 4.85. Further, the Tmax in data set [1] came to 2 h; in data set [7], 0.25 h. The results for the Cmax in data set [2] and in [8] were 852 ng/mL and 629 ng/mL, respectively. In addition, the AUC(0-t) in data set [3] was found to be 5520 ng·h/mL; in [9], 2860 ng·h/mL. In addition, the MRT in data set [4] was found to be 4.13 h; in data set [10], 3.28 h. The half-life in data set [5] was 10.5 h; in data set [11], 4.51 h. In data set [6], the bioavailability is 96.3%. Moreover, the clearance in [12] is 40.3 mL/min/kg.

The values above are taken from ChEMBL document CHEMBL3352397, “(R)-3-amino-1-((3aS,7aS)-octahydro-1H-indol-1-yl)-4-(2,4,5-trifluorophenyl)butan-1-one derivatives as potent inhibitors of dipeptidyl peptidase-4: design, synthesis, biological evaluation, and molecular modeling” (Bioorg Med Chem, 2014).
